Assay results as given in ChEMBL document CHEMBL1136084, “N-(4-[4-(2,3-dichlorophenyl)piperazin-1-yl]butyl, butenyl and butynyl)arylcarboxamides as novel dopamine D(3) receptor antagonists” (Bioorg Med Chem Lett, 2003).
pIC50, pKi: −log10 of the molar value.

What was measured:
D(3) dopamine receptor [1] = molecular target: D(3) dopamine receptor (Rattus norvegicus, UniProt P19020); test: Binding affinity towards rat Dopamine receptor D3 in Sf9 cells expressing in recombinant baculovirus (Bv) using [125I]IABN as radioligand
Sequence of D(3) dopamine receptor (Rattus norvegicus, UniProt P19020) (P19020 whole entry): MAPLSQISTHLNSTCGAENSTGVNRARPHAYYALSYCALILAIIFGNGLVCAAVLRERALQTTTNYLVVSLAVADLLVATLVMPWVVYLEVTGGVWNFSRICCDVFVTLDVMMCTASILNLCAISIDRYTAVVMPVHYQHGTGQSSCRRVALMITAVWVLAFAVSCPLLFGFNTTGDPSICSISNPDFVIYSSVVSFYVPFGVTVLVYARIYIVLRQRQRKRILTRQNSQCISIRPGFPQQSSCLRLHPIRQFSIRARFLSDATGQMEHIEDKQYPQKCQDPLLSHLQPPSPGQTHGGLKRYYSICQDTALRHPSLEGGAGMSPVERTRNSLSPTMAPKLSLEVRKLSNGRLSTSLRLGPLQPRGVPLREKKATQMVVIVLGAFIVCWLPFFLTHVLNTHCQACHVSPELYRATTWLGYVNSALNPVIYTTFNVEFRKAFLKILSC

D(3) dopamine receptor [2] = molecular target: D(3) dopamine receptor (Homo sapiens, UniProt P35462)
Sequence of D(3) dopamine receptor (Homo sapiens, UniProt P35462) (P35462 whole entry): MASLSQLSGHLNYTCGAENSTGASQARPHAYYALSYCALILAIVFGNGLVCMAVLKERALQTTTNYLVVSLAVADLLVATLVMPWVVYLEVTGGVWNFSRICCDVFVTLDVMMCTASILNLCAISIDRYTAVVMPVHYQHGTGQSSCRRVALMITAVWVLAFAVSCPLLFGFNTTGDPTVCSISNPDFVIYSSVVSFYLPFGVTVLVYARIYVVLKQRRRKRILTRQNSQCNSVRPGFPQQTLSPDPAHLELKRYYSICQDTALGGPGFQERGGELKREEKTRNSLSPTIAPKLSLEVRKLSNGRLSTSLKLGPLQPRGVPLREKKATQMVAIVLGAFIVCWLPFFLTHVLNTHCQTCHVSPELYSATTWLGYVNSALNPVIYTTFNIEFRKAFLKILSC
Description: Antagonistic activity of quinpirole stimulation of mitogenesis in human Dopamine receptor D3 transfected CHO cells

D(2) dopamine receptor = D(2) dopamine receptor (Rattus norvegicus, UniProt P61169); test: biochemical
Sequence of D(2) dopamine receptor (P61169 whole entry): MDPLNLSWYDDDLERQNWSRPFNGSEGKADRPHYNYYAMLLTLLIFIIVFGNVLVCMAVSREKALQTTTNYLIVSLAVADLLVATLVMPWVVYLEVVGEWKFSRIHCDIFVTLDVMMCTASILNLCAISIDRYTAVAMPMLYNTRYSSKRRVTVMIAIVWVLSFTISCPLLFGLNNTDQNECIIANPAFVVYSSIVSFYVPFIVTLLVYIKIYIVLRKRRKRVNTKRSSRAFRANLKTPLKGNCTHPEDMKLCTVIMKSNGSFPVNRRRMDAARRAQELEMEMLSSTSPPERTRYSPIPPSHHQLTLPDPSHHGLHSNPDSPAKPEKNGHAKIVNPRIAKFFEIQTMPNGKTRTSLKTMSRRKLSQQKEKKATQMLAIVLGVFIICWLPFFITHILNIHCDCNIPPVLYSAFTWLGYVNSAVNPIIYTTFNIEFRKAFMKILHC

| SMILES | pKi (D(3) dopamine receptor [1]) | pKi (D(2) dopamine receptor) | pIC50 (D(3) dopamine receptor [2]) |
| --- | --- | --- | --- |
| O=C(NCCCCN1CCN(c2cccc(Cl)c2Cl)CC1)c1cnc2ccccc2n1 | 8.72 | 6.96 | 7.57 |
| O=C(NCCCN1CCN(c2ccccc2)CC1)C1c2ccccc2-c2ccccc21 | 7.07 | 5.99 |  |
| O=C(NC/C=C\CN1CCN(c2cccc(Cl)c2Cl)CC1)c1cccc2c1-c1ccccc1C2 | 8.19 | 7.97 |  |
| O=C1c2ccccc2C(=O)N1CCCCCN1CCN(c2cccc(Cl)c2Cl)CC1 | 8.25 | 7.06 |  |
| O=C(NCCCCN1CCN(c2cccc(Cl)c2Cl)CC1)C1c2ccccc2-c2ccccc21 | 7.95 | 7.26 |  |
| O=C(NCCCN1CCN(c2cccc(Cl)c2Cl)CC1)c1cccc2c1-c1ccccc1C2=O | 7.37 | 6.82 |  |
| O=C(NCCCN1CCN(c2cccc(Cl)c2Cl)CC1)c1ccc2c(c1)Cc1ccccc1-2 | 6.70 | 6.40 |  |
| O=C(NCCCN1CCN(c2cccc(Cl)c2Cl)CC1)C1c2ccccc2-c2ccccc21 | 7.47 | 6.60 |  |
| O=C(NC/C=C/CN1CCN(c2cccc(Cl)c2Cl)CC1)c1cccc2c1-c1ccccc1C2 | 7.72 | 6.97 |  |
| O=C1c2ccccc2C(=O)N1CCCCN1CCN(c2cccc(Cl)c2Cl)CC1 | 8.32 | 6.99 |  |
| O=C(NCCCN1CCN(c2cccc(Cl)c2Cl)CC1)c1cccc2c1-c1ccccc1C2 | 6.86 | 6.42 |  |
| O=C(NCC#CCN1CCN(c2cccc(Cl)c2Cl)CC1)c1ccc2c(c1)Cc1ccccc1-2 | 6.67 | 6.00 |  |
| O=C(NCC#CCN1CCN(c2cccc(Cl)c2Cl)CC1)c1cccc2c1-c1ccccc1C2 | 5.97 | 6.05 |  |
| Nc1ccc2c(c1)-c1c(cccc1C(=O)NCCCCN1CCN(c3cccc(Cl)c3Cl)CC1)C2 | 8.46 | 7.10 |  |
| O=C(NCC#CCN1CCN(c2cccc(Cl)c2Cl)CC1)c1ccccc1 | 6.40 | 5.77 |  |

The remaining molecules from weak to strong by pKi (D(3) dopamine receptor [1]), led by results:

| pKi (D(3) dopamine receptor [1]) | pKi (D(2) dopamine receptor) | SMILES | pIC50 (D(3) dopamine receptor [2]) |
| --- | --- | --- | --- |
| 8.22 | 7.06 | O=C(NC/C=C\CN1CCN(c2cccc(Cl)c2Cl)CC1)c1ccc2c(c1)Cc1ccccc1-2 |  |
| 8.23 | 6.70 | O=C(NC/C=C/CN1CCN(c2cccc(Cl)c2Cl)CC1)c1ccc2c(c1)Cc1ccccc1-2 |  |
| 8.31 | 7.70 | O=C(NC/C=C\CN1CCN(c2cccc(Cl)c2Cl)CC1)c1ccccc1 |  |
| 8.35 | 6.87 | O=C(NCCCCN1CCN(c2cccc(Cl)c2Cl)CC1)c1cccc2c1-c1ccccc1C2 |  |
| 8.59 |  | O=C(NCCCCN1CCN(c2cccc(Cl)c2Cl)CC1)c1cc2cc(F)ccc2[nH]1 |  |
| 8.70 | 7.45 | O=C(NCCCCCN1CCN(c2cccc(Cl)c2Cl)CC1)c1cccc2c1-c1ccccc1C2=O |  |
| 8.80 | 6.82 | O=C(NCCCCN1CCN(c2cccc(Cl)c2Cl)CC1)c1cccc2c1-c1ccccc1C2=O |  |
| 8.85 | 7.06 | O=C(NCCCCN1CCN(c2cccc(Cl)c2Cl)CC1)c1ccc(I)cc1 |  |
| 8.89 | 7.30 | O=C(NC/C=C/CN1CCN(c2cccc(Cl)c2Cl)CC1)c1ccccc1 |  |
| 8.96 | 6.04 | O=C(NCCCCN1CCN(c2cccc(Cl)c2Cl)CC1)c1ccc2c(c1)Cc1ccccc1-2 |  |
| 9.22 | 7.24 | O=C(NCCCCN1CCN(c2cccc(Cl)c2Cl)CC1)c1ccc(-c2ccccn2)cc1 |  |
